These results are taken from patent publication US5719287A, “Intermediates for inhibitors of HIV protease and method of preparation thereof” (Eli Lilly and Company, priority 1995, dated 1998).

Molecules are shown by their SMILES.

The target of one test is T1, HIV-1 protease (Human immunodeficiency virus type 1 group M subtype B, UniProt P04585).
T1 construct: Purified HIV-1 protease was obtained as described below; made in house; host or cells: E. coli K12 L507/pHP10D (NRRL B-18560)
As to the kind of experiment: biochemical. Conditions: purified HIV-1 protease, MES-ALB buffer pH 5.5; 1 h preincubation, 16 h with substrate, room temperature; IC50 values for Examples 2-70 are standardized relative to Ex 1. The method, then: N^α -Biotin-[…]Ne-FITC)-OH
The purified peptide was labeled as follows with a fluorescent marker at the C-terminal end for use in the assay. N^α -Biotin-Gly-Ser-Gln-Asn-Tyr-Pro-lle-Val-Gly-Lys-OH (1.206 g, 0.936 mmoles) was dissolved in 100 mL of 0.1M sodium borate, pH 9.5 with stirring. Then, 3 g of fluorescein isothiocyanate (7.7 mmol) was dissolved in 15 mL dimethyl sulfoxide and the solution added to the reaction in 10 equal portions over the course of a two hour period. The reaction was allowed to proceed for a further one hour after the final addition had been made. The pH of the solution was adjusted to 3 with 5N HCl. A precipitate formed which was removed from the reaction by centrifugation.
Fluorescence HIV-1 Protease Inhibitor Assay Procedure.
To each well of a round bottom, 96-well plate is added 20 μl of the Enzyme Solution followed by 10 μl of the compound to be evaluated in 20% aqueous DMSO. Purified HIV-1 protease was obtained as described below. The solution is incubated for one hour at room temperature and then 20 μl of a solution of the substrate N^α -Biotin-[…]N^e -FITC)-OH, in MES-ALB buffer (1.5 μl/ml) is added to each well. The solutions are incubated for 16 hours at room temperature and thereafter to each well is added 150 μl of MES-ALB buffer.
To each well of a 96-well Pandex plate is added 25 μl of the Avidin Coated Beads Solution. Next, 25 μl of the diluted incubation solutions, described above, are added to each well of the Pandex plate. The solutions are mixed well and the plates are loaded into a Pandex® machine, washed, evacuated and read. Sample detection was performed by excitation at 485 nm and reading the resulting epifluorescence at 535 nm.
A culture of E. coli K12 L507/pHP10D was grown to mid-log phase at 32° C. in LB media containing 12.5 μg/ml tetracycline. The cultivation temperature was quickly elevated to 40° C. to induce gene expression, and the cells were allowed to grow for 2.5 hours at this temperature before the culture was quickly chilled on ice. The cells were centrifuged and the cell pellet was resuspended in 20 ml 50 mmol MES buffer (pH 6.0) containing 1 mmol EDTA, 1 mmol DTT, 1 mmol PMSF, and 10% glycerol (Buffer A). Cells were lysed by sonication using a Fischer Model 300 Dismembrator and a microtip probe. […] Enzymatic activity was measured by HPLC using the synthetic peptide SQNYPIV as described in Margolin et al., Biochem. Biophys. Res. Commun., 167, 554-560 (1990); the production of the pl peptide (SQNY) was measured.
Active fractions were pooled, made 1.2M in ammonium sulfate, and applied to a hexyl agarose column (2.0×18 cm) equilibrated in Buffer A containing 1.2M ammonium sulfate. The sample, in 125 ml (1.85 mg/ml), was loaded at a flow rate of 1 ml/min at 4° C. […] The column was then washed isocratically in Buffer A for 120 min. Active fractions were pooled, concentrated to 10 ml using an Amicon stirred cell with a YM-10 membrane, and applied at 1 ml/min to a MonoS cation exchange column (1.0×10 cm) equilibrated in Buffer A. After washing isocratically for 30 min, protease was eluted using a linear gradient of 0-0.45M NaCl in Buffer A over 40 min followed by an isocratic wash with Buffer A containing 0.45M NaCl over 30 min. Chromatography was performed at 25° C.
Pooled active fractions were concentrated to 200 ul using an Amicon stirred cell and a YM-10 membrane, and the protease was then applied to a Superose 6 size exclusion column equilibrated in Buffer A containing 0.1M NaCl. The column was washed isocratically in this buffer at a flow rate of 0.5 ml/min.
As to `CC(C)(C)NC(=O)c1ccccc1CC(O)C(Cc1ccccc1)NC(=O)C(CC(N)=O)NC(=O)c1cccc2cccnc12` (stereo not drawn) [Example 61, [1S-(1R*, 4R*, 5S*)]-N-(1-(2-amino-2-oxoethyl)-2-oxo-3-aza-4-phenylmethyl-5-hydroxy-6-(2-(1-t-butylamino-1-oxomethyl)phenyl)hexyl)-8-quinolinyl carboxamide], the “Fluorescence Assay IC50” value turned out to be 1.3 ng/mL.

Still in this test, the particulars now being: purified HIV-1 protease, MES-ALB buffer pH 5.5; 1 h preincubation, 16 h with substrate, room temperature; IC50 values for Examples 2-70 are standardized relative to Ex 1; read-out: Fluorescence Assay IC50 (converted).
As a reminder, the IC50 is the concentration needed to halve the response being measured. On to `CC(C)(C)NC(=O)c1ccccc1C[C@@H](O)[C@H](Cc1ccccc1)NC(=O)[C@H](CC(=O)NNc1cccnc1)NC(=O)c1ccc2ccccc2n1` [Example 50, [1S-(1R*, 4R*, 5S*)]-N-(1-(2-(N-(N-3-pyridyl)amino)amino)-2-oxoethyl)-2-oxo-3-aza-4-phenylmethyl-5-hydroxy-6-(2-(1-t-butylamino-1-oxomethyl)phenyl)hexyl)-2-quinolinyl carboxamide], for which the 50% inhibitory concentration (IC50) is 0.228 nM.

As for `CC(C)(C)NC(=O)c1ccccc1C[C@@H](O)[C@H](Cc1ccccc1)NC(=O)[C@H](CC(N)=O)NC(=O)c1ccc2cc(F)cc(F)c2n1` [Example 59, [1S-(1R*, 4R*, 5S*)]-N-(1-(2-amino-2-oxoethyl)-2-oxo-3-aza-4-phenylmethyl-5-hydroxy-6-(2-(1-t-butylamino-1-oxomethyl)phenyl)hexyl)-6,8-difluoroquinolin-2-yl carboxamide], the IC50 is 11.2 nM.

Staying with this test, now noted: read-out: Fluorescence Assay IC50 (converted).
In the case of `CC(C)(C)NC(=O)c1ccccc1C[C@@H](O)[C@H](Cc1ccccc1)NC(=O)[C@H](CC(=O)Nc1ccncc1)NC(=O)c1ccc2ccccc2n1` [Example 48, [1S-(1R*, 4R*, 5S*)]-N-(1-(2-(N-pyrid-4-yl)amino)-2-oxoethyl)-2-oxo-3-aza-4-phenylmethyl-5-hydroxy-6-(2-(1-t-butylamino-1-oxomethyl)phenyl)hexyl)-2-quinolinyl carboxamide], the IC50 is 1.16 nM.

Turning to `CC(C)(C)NC(=O)c1ccccc1C[C@@H](O)[C@H](Cc1ccccc1)NC(=O)[C@H](CC(=O)NCc1nc2ccccc2[nH]1)NC(=O)c1ccc2ccccc2n1` [Example 49, [1S-(1R*, 4R*, 5S*)]-N-(1-(2-(N-2-benzimidazolylmethyl)amino)-2-oxoethyl)-2-oxo-3-aza-4-phenylmethyl-5-hydroxy-6-(2-(1-t-butylamino-1-oxomethyl)phenyl)hexyl)-2-quinolinyl carboxamide], the concentration for half-maximal inhibition (IC50) was 0.676 nM.

For the compound `CC(C)(C)NC(=O)c1ccccc1C[C@@H](O)[C@H](CC1CCCCC1)NC(=O)[C@H](CC(N)=O)NC(=O)c1ccc2ccccc2n1` [Example 51, [1S-(1R*, 4R*. 5S*)]-N-(1-(2-amino-2-oxoethyl)-2-oxo-3-aza-4-cyclohexylmethyl-5-hydroxy-6-(2-(1-t-butylamino-1-oxomethyl)phenyl)hexyl)-2-quinolinyl carboxamide], the IC50 is 14.9 nM.

Regarding `CC(C)(C)NC(=O)c1ccccc1C[C@@H](O)[C@H](Cc1ccccc1)NC(=O)[C@H](CC(N)=O)NC(=O)c1ccc2cccc(F)c2n1` [Example 52, [1S-(1R*, 4R*, 5S*)]-N-(1-(2-amino-2-oxoethyl)-2-oxo-3-aza-4-phenylmethyl-5-hydroxy-6-(2-(1-t-butylamino-1-oxomethyl)phenyl)hexyl)-8-fluoroquinolin-2-yl carboxamide], the IC50 is 4.62 nM.

Turning to `CC(C)(C)NC(=O)c1ccccc1C[C@@H](O)[C@H](Cc1ccccc1)NC(=O)[C@H](CC(N)=O)NC(=O)c1cc(Cl)c2ccccc2n1` [Example 53, [1S-(1R*, 4R*, 5S*)]-N-(1-(2-amino-2-oxoethyl)-2-oxo-3-aza-4-phenylmethyl-5-hydroxy-6-(2-(1-t-butylamino-1-oxomethyl)phenyl)hexyl)-4-chloroquinolin-2-yl carboxamide], the IC50 was 1.2 nM.

For the compound `CC(C)(C)NC(=O)c1ccccc1C[C@@H](O)[C@H](Cc1ccccc1)NC(=O)[C@H](CCC(N)=O)NC(=O)c1ccc2ccccc2n1` [Example 54, [1S-(1R*, 4R*, 5S*)]-N-(1-(3-amino-3-oxopropyl)-2-oxo-3-aza-4-phenylmethyl-5-hydroxy-6-(2-(1-t-butylamino-1-oxomethyl)phenyl)hexyl)-2-quinolinyl carboxamide], the IC50 is 78.6 nM.

With `CC(C)(C)NC(=O)c1ccccc1C[C@@H](O)[C@H](Cc1ccccc1)NC(=O)[C@H](CC(N)=O)NC(=O)c1ccc2cc(Cl)ccc2n1` [Example 55, [1S-(1R*, 4R*, 5S*)]-N-(1-(2-amino-2-oxoethyl)-2-oxo-3-aza-4-phenylmethyl-5-hydroxy-6-(2-(1-t-butylamino-1-oxomethyl)phenyl)hexyl)-6-chloroquinolin-2-yl carboxamide], the IC50 was 1.26 nM.

Regarding `CC(C)(C)NC(=O)c1ccccc1C[C@@H](O)[C@H](Cc1ccccc1)NC(=O)[C@H](CCC(N)=O)NC(=O)c1ccc2ccccc2c1` [Example 56, [1S-(1R*, 4R*, 5S*)]-N-(1-(3-amino-3-oxopropyl) -2-oxo-3-aza-4-phenylmethyl-5-hydroxy-6-(2-(1-t-butylamino-1-oxomethyl)phenyl)hexyl)-2-naphthyl carboxamide], the IC50 is 38.9 nM.

On to `CC(C)(C)NC(=O)c1ccccc1C[C@@H](O)[C@H](Cc1ccccc1)NC(=O)[C@H](CC(N)=O)NC(=O)NCc1ccccc1` [Example 57, [2R-(2R*, 3S*, 6S*)]-N-t-butyl-2-(2-hydroxy-3-phenylmethyl-4-aza-5-oxo-6-(2-amino-2-oxoethyl)-7-aza-8-oxo-8-(N-benzylamino)octyl)benzamide], for which the IC50 was 16.5 nM.

For `CC(C)(C)NC(=O)c1ccccc1C[C@@H](O)[C@H](Cc1ccccc1)NC(=O)[C@H](CC(N)=O)NC(=O)NCc1cccc2ccccc12` [Example 58, [2R-(2R*, 3S*, 6S*)]-N-t-butyl-2-(2-hydroxy-3-phenylmethyl-4-aza-5-oxo-6-(2-amino-2-oxoethyl)-7-aza-8-oxo-8-(N-naphth-1-ylmethylamino)octyl)benzamide], the half-maximal inhibitory concentration (IC50) was 2.82 nM.

As for `CC(C)(C)NC(=O)c1ccccc1C[C@@H](O)[C@H](Cc1ccccc1)NC(=O)[C@H](CC(N)=O)NC(=O)c1ccc2cccc(Cl)c2n1` [Example 62, [1S-(1R*, 4R*, 5S*)]-N-(1-(2-amino-2-oxoethyl)-2-oxo-3-aza-4-phenylmethyl-5-hydroxy-6-(2-(1-t-butylamino-1-oxomethyl)phenyl)hexyl)-8-chloroquinolin-2-yl carboxamide], the IC50 was 5.9 nM.

On to `Cc1cc(C)c2ccc(C(=O)N[C@@H](CC(N)=O)C(=O)N[C@@H](Cc3ccccc3)[C@H](O)Cc3ccccc3C(=O)NC(C)(C)C)nc2c1` [Example 63, [1S-(1R*, 4R*, 5S*)]-N-(1-(2-amino-2-oxoethyl)-2-oxo-3-aza-4-phenylmethyl-5-hydroxy-6-(2-(1-t-butylamino-1-oxomethyl)phenyl)hexyl)-5,7-dimethylquinolin-2-yl carboxamide], for which the IC50 is 0.784 nM.

For `COc1cc(C(=O)N[C@@H](CC(N)=O)C(=O)N[C@@H](Cc2ccccc2)[C@H](O)Cc2ccccc2C(=O)NC(C)(C)C)nc2ccccc12` [Example 64, [1S-(1R*, 4R*, 5S*) ]-N-(1-(2-amino-2-oxoethyl)-2-oxo-3-aza-4-phenylmethyl-5-hydroxy-6-(2-(1-t-butylamino-1-oxomethyl)phenyl)hexyl)-4-methoxyquinolin-2-yl carboxamide], the IC50 was 0.782 nM.
